Measurements taken from ChEMBL document CHEMBL1201862, “PubChem BioAssay data set” (2004).
Where “and” joins values, the source holds several entries; their conditions need not be identical. Identical values can stand only once. Calls of active or inactive are those of the source.

Columns and labels:
Estrogen receptor = target: T1, Estrogen receptor (Homo sapiens, UniProt P03372);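 further: potency for inhibiting coactivator peptide recruitment to the receptor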
T1 sequence (P03372 whole entry): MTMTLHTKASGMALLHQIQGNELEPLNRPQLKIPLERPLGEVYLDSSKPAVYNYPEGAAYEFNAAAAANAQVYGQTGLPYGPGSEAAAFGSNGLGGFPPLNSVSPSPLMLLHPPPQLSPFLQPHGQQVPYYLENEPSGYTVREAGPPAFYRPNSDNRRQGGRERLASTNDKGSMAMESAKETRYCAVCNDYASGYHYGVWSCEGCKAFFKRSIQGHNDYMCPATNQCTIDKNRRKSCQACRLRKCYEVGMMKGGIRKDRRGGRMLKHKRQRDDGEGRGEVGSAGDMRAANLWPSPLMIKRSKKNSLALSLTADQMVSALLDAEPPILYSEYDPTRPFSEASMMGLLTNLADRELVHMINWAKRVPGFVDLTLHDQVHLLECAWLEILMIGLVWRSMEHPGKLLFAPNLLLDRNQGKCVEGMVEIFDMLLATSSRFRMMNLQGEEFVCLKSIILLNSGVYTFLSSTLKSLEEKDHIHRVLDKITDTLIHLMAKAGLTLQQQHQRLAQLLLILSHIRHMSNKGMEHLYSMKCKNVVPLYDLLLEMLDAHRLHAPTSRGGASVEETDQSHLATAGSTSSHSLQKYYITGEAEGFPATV

Bcl-2-related protein A1 [1] = target: T2, Bcl-2-related protein A1 (Mus musculus, UniProt Q07440); assay: Bfl-1 binding inhibitors, SAR follow-up, biochemical, fluorescence polarization (AID 1070)
T2 sequence (Q07440 whole entry): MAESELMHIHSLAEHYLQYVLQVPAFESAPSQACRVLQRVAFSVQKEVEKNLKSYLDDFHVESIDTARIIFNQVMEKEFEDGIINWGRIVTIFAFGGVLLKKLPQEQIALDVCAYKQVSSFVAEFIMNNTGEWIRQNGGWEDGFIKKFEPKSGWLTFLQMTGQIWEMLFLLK

Estrogen receptor beta [2] = target: T3, Estrogen receptor beta (Homo sapiens, UniProt Q92731);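 further: recombinant ER-beta bound to coactivator SRC1 peptide in presence of estradiol agonist; inhibitors block coactivator peptide binding and lower the FRET signal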
[3] = target: Glyceraldehyde-3-phosphate dehydrogenase (Homo sapiens, UniProt P04406)
Bcl-2-related protein A1 [4] = target: T2, Bcl-2-related protein A1; assay: Bfl-1 inhibitors, primary screen, biochemical, fluorescence polarization, FITC-Bid, mouse (AID 432)
Estrogen receptor beta [5] = target: T3, Estrogen receptor beta; assay: ERβ–SRC-3 coactivator interaction inhibitors, confirmation, orthogonal assay, biochemical, ELISA, streptavidin-HRP readout (AID 1060)
Bcl-2-related protein A1 [6] = target: T2, Bcl-2-related protein A1; assay: Bfl-1 inhibitors blocking BH3 peptide binding, confirmation, biochemical, TR-FRET, mouse Bfl-1 (AID 621);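 further: TR-FRET binding of GST-Bfl-1 to FITC-labelled Bid peptide via terbium antibody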
Vero = assay: host cell cytotoxicity of antiviral hits, dose response, cytotoxicity control for West Nile virus antiviral project, secondary assay (AID 1650); assay type: functional; conditions: Chlorocebus sabaeus
[7] = target: Heat shock protein HSP 90-alpha (Homo sapiens, UniProt P07900); assay: Luminescence-based dose response biochemical high throughput screening assay for inhibitors of the Heat Shock Protein 90 (HSP90). [Related pubchem assays: 1831 (Summary AID.), 1846 (Confirmation screen.), 1789 (Primary screen.)]
Insulin-degrading enzyme = target: T4, Insulin-degrading enzyme (Homo sapiens, UniProt P14735); assay: Dose Response: Fluorescence polarization-based cell-based high throughput dose response assay for inhibitors of insulin-degrading enzyme (IDE). [Related pubchem assays: 434962 (Primary screen (IDE inhibitors in singlicate)), 449730 (Counterscreen (Cytotoxicity in triplicate)), 435028 (Confirmation (IDE inhibitors in triplicate)), 434984 (Summary …; assay type: functional
T4 sequence (P14735 whole entry): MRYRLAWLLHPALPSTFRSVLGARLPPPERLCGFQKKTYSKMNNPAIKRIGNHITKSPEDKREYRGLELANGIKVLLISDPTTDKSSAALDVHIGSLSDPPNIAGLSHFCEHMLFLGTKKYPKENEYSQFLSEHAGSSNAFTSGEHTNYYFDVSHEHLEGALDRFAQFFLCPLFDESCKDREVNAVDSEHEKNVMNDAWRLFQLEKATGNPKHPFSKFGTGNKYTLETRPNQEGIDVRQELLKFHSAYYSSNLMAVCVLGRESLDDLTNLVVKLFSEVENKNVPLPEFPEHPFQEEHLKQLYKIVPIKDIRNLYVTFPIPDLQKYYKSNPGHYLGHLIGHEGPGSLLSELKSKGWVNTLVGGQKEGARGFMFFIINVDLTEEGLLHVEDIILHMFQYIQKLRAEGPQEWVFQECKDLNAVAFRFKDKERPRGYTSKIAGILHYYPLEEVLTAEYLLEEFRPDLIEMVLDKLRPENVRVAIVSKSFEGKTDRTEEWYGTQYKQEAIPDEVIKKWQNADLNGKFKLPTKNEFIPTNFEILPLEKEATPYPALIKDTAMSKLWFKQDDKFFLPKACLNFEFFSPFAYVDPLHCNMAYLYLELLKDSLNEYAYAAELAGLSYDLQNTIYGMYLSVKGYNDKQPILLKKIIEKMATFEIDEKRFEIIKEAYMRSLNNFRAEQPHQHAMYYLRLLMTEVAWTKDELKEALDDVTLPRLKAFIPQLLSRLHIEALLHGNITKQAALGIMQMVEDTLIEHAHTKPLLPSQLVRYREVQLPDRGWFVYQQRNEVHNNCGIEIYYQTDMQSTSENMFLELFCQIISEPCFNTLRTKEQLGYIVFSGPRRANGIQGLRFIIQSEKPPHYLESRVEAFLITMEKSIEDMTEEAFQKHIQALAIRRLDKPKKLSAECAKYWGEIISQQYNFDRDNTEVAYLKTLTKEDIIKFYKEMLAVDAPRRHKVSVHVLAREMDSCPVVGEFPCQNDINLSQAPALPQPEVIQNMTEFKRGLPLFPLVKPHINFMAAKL

[8] = Counterscreen for IDE inhibitors: Luminescence-based cell-based high throughput dose response assay to identify compounds that are cytotoxic to HEK cells. [Related pubchem assays: 434962 (Primary screen (IDE inhibitors in singlicate)), 449730 (Counterscreen (Cytotoxicity in triplicate)), 435028 (Confirmation (IDE inhibitors in triplicate)) …; assay type: functional; conditions: HEK293
HeLa = assay: Cytotoxicity counterscreen assay for transcriptional activators of heat shock protein 70 (Hsp70). [Related pubchem assays: 1203, 1252 ]; assay type: functional; conditions: Homo sapiens;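 further: cells exposed to compound for 16 hours before readout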
[9] = target: Ubiquitin carboxyl-terminal hydrolase BAP1 (Homo sapiens, UniProt Q92560); assay: BAP1 deubiquitinase inhibitors, dose response, biochemical (AID 714); assay type: functional
[10] = M. tuberculosis H37Rv growth inhibitors, H37Rv strain (AID 1626); assay type: functional
Mucolipin-3 = target: T5, Mucolipin-3 (Homo sapiens, UniProt Q8TDD5); assay: Dose response cell-based high-throughput screening assay for agonists of the transient receptor potential channel ML3 (TRPML3). [Related pubchem assays: 1526, 1424, 1448 ]; assay type: functional
T5 sequence (Q8TDD5 whole entry): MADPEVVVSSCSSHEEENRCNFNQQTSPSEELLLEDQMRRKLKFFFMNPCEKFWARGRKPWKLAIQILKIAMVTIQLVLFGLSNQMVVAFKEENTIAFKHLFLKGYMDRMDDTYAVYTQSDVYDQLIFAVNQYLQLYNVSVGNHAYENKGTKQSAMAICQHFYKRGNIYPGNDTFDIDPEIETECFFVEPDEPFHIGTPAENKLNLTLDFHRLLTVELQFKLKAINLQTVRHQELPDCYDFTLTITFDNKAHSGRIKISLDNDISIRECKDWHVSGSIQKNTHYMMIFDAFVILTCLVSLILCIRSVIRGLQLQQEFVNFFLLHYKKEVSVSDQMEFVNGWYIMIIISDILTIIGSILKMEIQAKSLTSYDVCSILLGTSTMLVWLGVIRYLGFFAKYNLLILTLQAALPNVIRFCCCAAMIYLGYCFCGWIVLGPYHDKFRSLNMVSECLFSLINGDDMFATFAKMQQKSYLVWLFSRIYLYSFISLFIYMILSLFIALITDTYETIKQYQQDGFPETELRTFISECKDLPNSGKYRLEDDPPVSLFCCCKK

Ion channel NompC = Ion channel NompC (Danio rerio, UniProt Q7T1G6); assay: Fluorescence counterscreen assay for TRPML3 agonists: dose response cell-based high-throughput screening assay to identify agonists of the transient receptor potential channel N1 (TRPN1). [Related pubchem assays: 1526, 1424, 1448 ]; assay type: functional
[11] = target: Peroxisome proliferator-activated receptor gamma/Nuclear receptor coactivator 1 (Homo sapiens, UniProt P37231); assay: (§1) TR-FRET dose response biochemical High Throughput Screening assay for agonists of the steroid receptor coactivator 1 (SRC-1) recruitment by the peroxisome proliferator-activated receptor gamma (PPAR gamma): non-selective agonists. [Related pubchem assays (depositor defined):AID1300, AID1808, AID504735, AID631]; assay type: protein assay
[12] = target: Peroxisome proliferator-activated receptor gamma/Nuclear receptor coactivator 3 (Homo sapiens, UniProt P37231); assay: as §1, with “3 (SRC-3)” for “1 (SRC-1)”, “assays: 1301 (Confirmation screen.), 1048 (Primary screen.)]” for “assays (depositor defined):AID1300, AID1808, AID504735, AID631]”; assay type: functional
[13] = target: Mitogen-activated protein kinase 10 (Homo sapiens, UniProt P53779); assay: Dose response biochemical screening assay for inhibitors of c-Jun N-Terminal Kinase 3 (JNK3). [Related pubchem assays: 746 ]
[14] = target: Peroxisome proliferator-activated receptor gamma/Nuclear receptor coactivator 2 (Homo sapiens, UniProt P37231); assay: TR-FRET dose response biochemical High Throughput Screening assay for agonists of the steroid receptor coactivator 2 (SRC-2) recruitment by the peroxisome proliferator-activated receptor gamma (PPAR gamma): non-selective agonists. [Related pubchem assays: 1297, 1032 ]; assay type: functional
[15] = target: T6, Small ubiquitin-related modifier 1 (Homo sapiens, UniProt P63165); assay: inhibitors of SUMO1 peptide binding, dose response, biochemical, fluorescence polarization, uHTS hits (AID 624382); assay type: functional; conditions: read-out: IC50_Mean
[16] = target: T6, Small ubiquitin-related modifier 1; assay: inhibitors of SUMO1 partner interactions, dose response, biochemical, FRET (AID 624383); assay type: functional; conditions: read-out: IC50_Mean
[17] = target: RNA-editing ligase 1, mitochondrial (Trypanosoma brucei brucei, UniProt P86926); assay: TbREL1 ligase inhibitors, dose response, biochemical, fluorescence, Trypanosoma brucei (AID 1117295); assay type: functional
Sequence of RNA-editing ligase 1, mitochondrial (P86926 whole entry): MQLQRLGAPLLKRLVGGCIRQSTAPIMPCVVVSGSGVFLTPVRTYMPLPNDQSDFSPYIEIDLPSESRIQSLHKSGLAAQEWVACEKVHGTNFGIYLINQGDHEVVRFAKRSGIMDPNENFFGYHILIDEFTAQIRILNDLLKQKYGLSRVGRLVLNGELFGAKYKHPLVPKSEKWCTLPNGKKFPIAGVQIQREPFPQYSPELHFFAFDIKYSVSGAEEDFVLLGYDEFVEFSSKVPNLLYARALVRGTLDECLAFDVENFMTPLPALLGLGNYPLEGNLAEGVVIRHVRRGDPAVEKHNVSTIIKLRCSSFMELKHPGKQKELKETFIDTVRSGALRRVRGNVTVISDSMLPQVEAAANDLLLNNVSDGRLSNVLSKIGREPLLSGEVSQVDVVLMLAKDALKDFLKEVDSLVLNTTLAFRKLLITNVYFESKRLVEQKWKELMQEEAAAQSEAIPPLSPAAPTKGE

Sequence of Ion channel NompC (Q7T1G6 whole entry): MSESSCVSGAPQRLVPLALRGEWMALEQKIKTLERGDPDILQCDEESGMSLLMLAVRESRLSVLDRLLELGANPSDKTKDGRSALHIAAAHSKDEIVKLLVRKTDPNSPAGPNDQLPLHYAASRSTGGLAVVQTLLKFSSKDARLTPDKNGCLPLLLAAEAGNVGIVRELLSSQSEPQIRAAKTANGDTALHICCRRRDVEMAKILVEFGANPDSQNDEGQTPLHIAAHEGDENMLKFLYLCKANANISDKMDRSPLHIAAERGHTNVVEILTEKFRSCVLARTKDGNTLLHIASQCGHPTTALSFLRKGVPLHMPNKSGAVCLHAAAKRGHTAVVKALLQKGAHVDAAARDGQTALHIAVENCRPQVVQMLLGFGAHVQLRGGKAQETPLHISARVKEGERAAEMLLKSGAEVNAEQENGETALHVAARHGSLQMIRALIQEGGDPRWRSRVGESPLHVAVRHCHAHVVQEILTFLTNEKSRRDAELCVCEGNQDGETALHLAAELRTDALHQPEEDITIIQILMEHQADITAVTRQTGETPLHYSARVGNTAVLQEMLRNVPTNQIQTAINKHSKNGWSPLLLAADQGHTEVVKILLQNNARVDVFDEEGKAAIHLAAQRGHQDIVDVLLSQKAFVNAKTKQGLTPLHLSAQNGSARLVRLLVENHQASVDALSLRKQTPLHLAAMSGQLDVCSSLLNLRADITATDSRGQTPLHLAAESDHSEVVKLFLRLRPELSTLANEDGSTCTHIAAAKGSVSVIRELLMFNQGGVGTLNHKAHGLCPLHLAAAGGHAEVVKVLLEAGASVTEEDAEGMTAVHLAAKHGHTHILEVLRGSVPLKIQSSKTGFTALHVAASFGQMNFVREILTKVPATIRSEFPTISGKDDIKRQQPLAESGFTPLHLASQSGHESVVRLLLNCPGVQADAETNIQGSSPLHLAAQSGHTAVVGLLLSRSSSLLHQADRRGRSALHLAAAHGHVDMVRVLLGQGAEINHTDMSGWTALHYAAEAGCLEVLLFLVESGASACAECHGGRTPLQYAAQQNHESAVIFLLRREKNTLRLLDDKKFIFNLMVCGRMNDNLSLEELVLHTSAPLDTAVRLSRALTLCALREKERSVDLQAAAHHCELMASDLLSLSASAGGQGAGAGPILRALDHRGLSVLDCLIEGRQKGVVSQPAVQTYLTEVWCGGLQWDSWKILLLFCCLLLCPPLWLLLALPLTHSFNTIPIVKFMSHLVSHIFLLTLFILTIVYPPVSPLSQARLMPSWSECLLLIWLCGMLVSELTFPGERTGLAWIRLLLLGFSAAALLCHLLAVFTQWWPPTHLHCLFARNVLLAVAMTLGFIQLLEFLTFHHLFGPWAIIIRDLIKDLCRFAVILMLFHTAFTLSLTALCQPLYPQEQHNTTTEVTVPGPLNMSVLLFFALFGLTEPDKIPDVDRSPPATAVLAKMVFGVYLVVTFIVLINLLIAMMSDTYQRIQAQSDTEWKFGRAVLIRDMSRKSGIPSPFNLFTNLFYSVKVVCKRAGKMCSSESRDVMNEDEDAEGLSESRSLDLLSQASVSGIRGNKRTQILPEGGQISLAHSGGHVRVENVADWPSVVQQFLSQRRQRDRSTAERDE
Sequence of Mitogen-activated protein kinase 10 (P53779 whole entry): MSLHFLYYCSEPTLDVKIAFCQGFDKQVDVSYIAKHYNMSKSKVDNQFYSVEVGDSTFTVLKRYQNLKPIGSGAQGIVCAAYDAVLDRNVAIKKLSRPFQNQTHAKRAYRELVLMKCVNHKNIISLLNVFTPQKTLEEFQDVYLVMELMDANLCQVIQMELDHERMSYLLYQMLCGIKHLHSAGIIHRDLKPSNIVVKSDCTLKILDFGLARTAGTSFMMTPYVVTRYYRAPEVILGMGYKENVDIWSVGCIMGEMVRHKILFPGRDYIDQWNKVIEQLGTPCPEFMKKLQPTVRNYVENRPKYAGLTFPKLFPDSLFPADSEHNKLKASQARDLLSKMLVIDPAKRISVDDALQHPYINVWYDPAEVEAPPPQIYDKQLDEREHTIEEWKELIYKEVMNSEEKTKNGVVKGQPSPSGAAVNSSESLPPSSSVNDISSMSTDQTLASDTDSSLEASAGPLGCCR
Sequence of Ubiquitin carboxyl-terminal hydrolase BAP1 (Q92560 whole entry): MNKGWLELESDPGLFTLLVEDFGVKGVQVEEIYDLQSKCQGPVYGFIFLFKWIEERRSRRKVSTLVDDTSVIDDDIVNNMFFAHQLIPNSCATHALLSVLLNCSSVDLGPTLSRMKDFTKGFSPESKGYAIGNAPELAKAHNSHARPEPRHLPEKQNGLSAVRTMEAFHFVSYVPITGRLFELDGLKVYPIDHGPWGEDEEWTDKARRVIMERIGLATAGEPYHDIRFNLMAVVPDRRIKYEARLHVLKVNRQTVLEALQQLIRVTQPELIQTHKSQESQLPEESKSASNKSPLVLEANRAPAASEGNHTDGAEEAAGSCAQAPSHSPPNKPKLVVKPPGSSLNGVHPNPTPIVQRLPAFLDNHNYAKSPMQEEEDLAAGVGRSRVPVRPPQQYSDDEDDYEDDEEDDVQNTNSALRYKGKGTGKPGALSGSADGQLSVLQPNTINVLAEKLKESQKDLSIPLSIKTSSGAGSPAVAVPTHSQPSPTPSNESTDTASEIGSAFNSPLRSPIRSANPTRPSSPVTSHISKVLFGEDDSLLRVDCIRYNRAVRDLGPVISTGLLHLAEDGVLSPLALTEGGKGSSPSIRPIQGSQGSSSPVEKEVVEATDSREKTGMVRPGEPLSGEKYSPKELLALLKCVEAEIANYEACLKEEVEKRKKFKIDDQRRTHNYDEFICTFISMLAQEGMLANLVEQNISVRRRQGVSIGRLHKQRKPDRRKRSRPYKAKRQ
T3 sequence (Q92731 whole entry): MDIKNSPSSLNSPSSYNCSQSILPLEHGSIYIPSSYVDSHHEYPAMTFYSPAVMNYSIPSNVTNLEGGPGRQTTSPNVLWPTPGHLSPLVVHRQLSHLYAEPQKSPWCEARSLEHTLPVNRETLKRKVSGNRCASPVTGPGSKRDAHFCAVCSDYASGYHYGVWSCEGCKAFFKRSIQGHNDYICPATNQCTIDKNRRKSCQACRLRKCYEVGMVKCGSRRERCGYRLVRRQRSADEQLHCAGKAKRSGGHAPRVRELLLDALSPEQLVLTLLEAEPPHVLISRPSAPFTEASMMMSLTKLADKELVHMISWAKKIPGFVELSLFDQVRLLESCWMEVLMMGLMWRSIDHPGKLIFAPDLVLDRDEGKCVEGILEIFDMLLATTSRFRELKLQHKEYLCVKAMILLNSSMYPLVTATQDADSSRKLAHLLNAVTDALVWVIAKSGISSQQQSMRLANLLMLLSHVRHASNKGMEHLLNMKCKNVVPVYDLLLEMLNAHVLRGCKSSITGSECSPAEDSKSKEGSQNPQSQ
T6 sequence (P63165 whole entry): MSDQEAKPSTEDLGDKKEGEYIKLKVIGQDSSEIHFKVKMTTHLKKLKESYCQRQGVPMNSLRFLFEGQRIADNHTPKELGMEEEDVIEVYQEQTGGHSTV
Sequence of Glyceraldehyde-3-phosphate dehydrogenase (P04406 whole entry): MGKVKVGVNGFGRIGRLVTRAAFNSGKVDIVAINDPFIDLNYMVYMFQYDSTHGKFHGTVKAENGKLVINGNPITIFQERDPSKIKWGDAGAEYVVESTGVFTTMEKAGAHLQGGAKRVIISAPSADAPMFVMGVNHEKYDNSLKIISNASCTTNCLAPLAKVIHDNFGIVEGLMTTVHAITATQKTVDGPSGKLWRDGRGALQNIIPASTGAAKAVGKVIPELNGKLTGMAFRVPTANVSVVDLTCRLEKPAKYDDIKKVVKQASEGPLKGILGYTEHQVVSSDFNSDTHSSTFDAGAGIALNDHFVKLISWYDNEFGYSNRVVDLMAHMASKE

In the case of `O=C(Nc1cnn(C23CC4CC(CC(C4)C2)C3)c1)c1cnn2c(C(F)(F)F)cc(-c3ccco3)nc12`, the IC50 (Estrogen receptor) is reported as 3.64 µM (active), the IC50 (Bcl-2-related protein A1 [1]) is reported as 1.69 µM (active) and the IC50 (Estrogen receptor beta [2]) is reported as > 50 µM (not active). For the same compound, the IC50 [3] was > 100 µM (not active), the IC50 (Bcl-2-related protein A1 [4]) was 11.2 µM (active) and the IC50 (Estrogen receptor beta [5]) was < 0.023 µM (not active). The IC50 (Bcl-2-related protein A1 [6]) was 1.76 µM (active) and 12.3 µM (active).

In the case of `O=C1/C(=C/c2ccco2)SC(=S)N1CCC(=O)N1CCCCC1CCO` (stereo unspecified), the CC50 (Vero) is reported as 13.4 µM (active).

In the case of `COCCn1c(C)cc(C(=O)Cn2nc(C(=O)O)c3ccccc3c2=O)c1C`, the IC50 [7] is reported as 3.73 µM (active).

With `Cc1c(-c2cccc(Cl)c2)nc2ccccc2c1C(=O)OCC(=O)N(C)C1CCS(=O)(=O)C1` (stereo unspecified) the IC50 (Insulin-degrading enzyme) was > 55.9 µM (not active) and the IC50 [8] was 36.1 µM (not active).

For `Cc1cccc(-c2noc(CCCC(=O)N3CCOCC3)n2)c1`, the CC50 (HeLa) was > 99 µM (not active).

With `CCOC(=O)c1c(NC(=O)CSc2nnc(CNc3ccc(F)cc3)o2)sc(C)c1C` the IC50 [9] was 29.1 µM (active).

For `CC(=O)C1=C(C)NC(SCC(=O)c2ccc(Cl)c(Cl)c2)=C(C#N)C1c1ccco1` (stereo unspecified), the IC50 [9] was > 50 µM (not active).

For `O=C(CSc1nnc(-c2ccco2)o1)c1ccccc1Cl`, the IC50 [10] was > 100 µM (active).

In the case of `Cc1ccc(S(=O)(=O)N(CC(=O)N2CCCCC2)c2cccc(C)c2)cc1`, the EC50 (Mucolipin-3) is reported as 1.24 µM (active) and the EC50 (Ion channel NompC) is reported as > 29.9 µM (not active).

For `CCOC(=O)CC(=O)CSc1ncnc2c1oc1ccccc12`, the EC50 [11] was > 79.4 µM (inactive), the EC50 [12] was > 79.4 µM (not active) and the IC50 [13] was > 31 µM (not active). For the same compound, the EC50 [14] was > 26.5 µM (not active).

For `CC1=CC(C)(C)N(C(=O)CSc2nnc(-c3ccccc3)o2)c2ccc(C)cc21`, the EC50 (Mucolipin-3) was 4.18 µM (active) and the EC50 (Ion channel NompC) was > 29.9 µM (not active).

With `O=C(CSc1ncccc1-c1nc2ccccc2[nH]1)N1CCN(c2ccccc2F)CC1` the IC50 [13] was 55.9 µM (not active).

For `O=C(O)c1cccc(NC(=S)NC(NC(=O)c2cccc([N+](=O)[O-])c2)C(Cl)(Cl)Cl)c1` (stereo unspecified), the IC50 [7] was 9.85 µM (active), the IC50 [15] was > 66.6 µM (inactive) and the IC50 [16] was 10.8 µM (active).

With `COCCn1cnc2cc(C)c(C)cc21` the IC50 (Bcl-2-related protein A1 [4]) was > 100 µM (not active) and the IC50 (Bcl-2-related protein A1 [6]) was > 100 µM (not active).

In the case of `COC(=O)C1=C(C)N(Cc2ccccc2C(F)(F)F)C(NCC2CC2)=NC1c1ccc(F)cc1` (stereo unspecified), the IC50 [17] is reported as > 96.6 µM (inactive).

In the case of `COC(=O)C1=C(C)N(Cc2ccccc2C(F)(F)F)C(NCc2ccc3c(c2)OCO3)=NC1c1ccc(C(F)(F)F)cc1` (stereo unspecified), the IC50 [17] is reported as > 96.6 µM (inactive).
